For data set [1] the following is noted: 101.33 kPa, Liquid, Vibrating tube method.
Data set [2] in a line: refractive index (Na D-line) (dimensionless). The following applies: 101.33 kPa, Liquid, Standard Abbe refractometry.

Numbers after ± are expanded uncertainties.

Consider `CCC(C)CC` [3-methylpentane], for which the mass density in data set [1] (293.15 K) is listed as 664.225 ± 0.17 kg/m3; in data set [1] (295.15 K) it was 662.39 ± 0.18 kg/m3; in data set [1] (297.15 K), 660.589 ± 0.17 kg/m3; in data set [1] (298.15 K), 659.736 ± 0.18 kg/m3; in data set [1] (298.6 K), 659.308 ± 0.18 kg/m3. Also, the refractive index amounted to 1.37654 ± 0.00041 in data set [2] (293.15 K) and 1.37387 ± 0.00041 in data set [2] (298.15 K).
For the molecule `C=CCCCC` [hex-1-ene], the mass density in data set [1] (293.15 K) is 673.227 ± 0.17 kg/m3; in data set [1] (295.15 K) it was 670.871 ± 0.17 kg/m3; in data set [1] (297.15 K) it was 668.986 ± 0.17 kg/m3; in data set [1] (298.15 K), 668.033 ± 0.17 kg/m3; in data set [1] (301.35 K) it was 664.998 ± 0.17 kg/m3. For the same molecule, the refractive index in data set [2] (293.15 K) stood at 1.38796 ± 0.00041; in data set [2] (298.15 K), 1.3851 ± 0.00041.

One may read the mass density as mass per unit of volume. A word on the refractive index: it is a measure of how strongly the sample bends light.

Source of the values: the NIST ThermoML archive (doi:10.1016/j.jct.2017.12.002).
